According to US20040082598A1, “Compounds specific to adenosine A, receptors and uses thereof” (OSI Pharmaceuticals, Inc., priority 2000, published 2004):
pIC50, pKi: −log10 of the molar value. One block for each compound: values may come before it.

How the values were obtained:
[1] = system: human A1 adenosine receptor; conditions: cited from earlier work
[2] = molecular target: T1, human A1 receptor subtype (Homo sapiens, UniProt P30542); test: Adenosine 1 receptor subtype saturation and competition radioligand binding ([3H]DPCPX, yeast membranes)
T1 construct: yeast alpha-factor (Mfα1) prepro leader (N, cleaved yes); expressed in transfected cells; host or cells: Saccharomyces cerevisiae (strain CY12660 or related strains carrying plasmid p5095)
T1 sequence (P30542 1-326): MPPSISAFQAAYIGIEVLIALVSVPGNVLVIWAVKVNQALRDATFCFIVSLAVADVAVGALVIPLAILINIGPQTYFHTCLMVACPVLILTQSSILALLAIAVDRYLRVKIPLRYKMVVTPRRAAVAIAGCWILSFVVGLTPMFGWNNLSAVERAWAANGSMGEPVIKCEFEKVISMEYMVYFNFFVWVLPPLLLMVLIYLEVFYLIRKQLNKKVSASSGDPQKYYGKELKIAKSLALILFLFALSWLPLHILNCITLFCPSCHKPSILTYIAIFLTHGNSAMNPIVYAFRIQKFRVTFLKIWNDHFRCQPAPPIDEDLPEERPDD

human adenosine A1 (A1R) = molecular target: T2, human adenosine A1 (A1R) (Homo sapiens, UniProt P30542); test: Yeast β-galactosidase reporter gene assay, strain CY12660; format: cell-based; conditions: inhibition of NECA-induced β-galactosidase activity
T2 construct: yeast alpha-factor (Mfα1) prepro leader (N, cleaved yes); expressed in transfected cells; host or cells: Saccharomyces cerevisiae (strain CY12660 or related strains carrying plasmid p5095)
T2 sequence (P30542 1-326): T1 sequence (P30542 1-326)

[3] = molecular target: T3, human A2a receptor subtype (Homo sapiens, UniProt P29274); test: Adenosine 2a receptor subtype competition radioligand binding ([3H]CGS-21680, HEK293 membranes); conditions: no footnote at cell; footnote 8 of table: % activity @ 10 μM
T3 construct: expressed in transfected cells; host or cells: HEK-293 (Cadus clone # 5)

[4] = molecular target: T4, human A3 receptor subtype (Homo sapiens, UniProt P0DMS8); test: Adenosine 3 receptor competition radioligand binding ([125I]AB-MECA, HEK293 membranes)
T4 construct: expressed in transfected cells; host or cells: HEK293
T4 sequence (P0DMS8 1-318): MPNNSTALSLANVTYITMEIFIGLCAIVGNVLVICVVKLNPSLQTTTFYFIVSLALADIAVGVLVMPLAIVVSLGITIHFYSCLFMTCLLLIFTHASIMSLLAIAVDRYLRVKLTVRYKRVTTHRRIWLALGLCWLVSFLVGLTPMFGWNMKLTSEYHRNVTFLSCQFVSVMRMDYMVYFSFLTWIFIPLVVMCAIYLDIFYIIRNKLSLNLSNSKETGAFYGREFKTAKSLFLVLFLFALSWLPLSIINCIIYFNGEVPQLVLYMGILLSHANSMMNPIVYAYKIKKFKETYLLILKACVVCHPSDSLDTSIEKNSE

human A2a receptor = conditions: read-out: Reported Ki; cited from earlier work

T3 sequence (P29274 whole entry): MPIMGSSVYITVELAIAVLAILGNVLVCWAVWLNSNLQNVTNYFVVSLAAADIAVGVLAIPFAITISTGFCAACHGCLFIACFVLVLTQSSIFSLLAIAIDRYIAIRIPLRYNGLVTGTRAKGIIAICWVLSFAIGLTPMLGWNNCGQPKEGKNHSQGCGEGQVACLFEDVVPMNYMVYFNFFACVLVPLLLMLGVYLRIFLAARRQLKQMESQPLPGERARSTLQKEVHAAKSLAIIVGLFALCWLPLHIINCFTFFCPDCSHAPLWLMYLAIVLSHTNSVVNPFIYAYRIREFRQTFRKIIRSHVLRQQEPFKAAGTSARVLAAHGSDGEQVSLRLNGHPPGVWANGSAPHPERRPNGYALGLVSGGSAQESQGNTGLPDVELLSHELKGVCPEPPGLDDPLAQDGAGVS

SMILES: CC(Cc1ccccc1)Nc1ncnc2c1ncn2[C@@H]1O[C@H](CO)[C@@H](O)[C@H]1O (single isomer, unassigned; (-)) [PIA, (−)-N6-(2-phenylisopropyl)-adenosine]
reported affinity [1]: approximately 50 nM

SMILES: Cc1[nH]c2nc(-c3ccccc3)nc(NC3CCC(NS(C)(=O)=O)CC3)c2c1C (stereo not drawn) [Compound 604]
pKi [2]: < 5.00

SMILES: Cc1[nH]c2nc(-c3ccccc3)nc(NC3CCC(NC(=O)c4ccccc4)CC3)c2c1C (stereo not drawn) [Compound 606]
pKi [2]: 6.53 | pIC50 (human adenosine A1 (A1R)): < 5.00

SMILES: Cc1[nH]c2nc(-c3ccccc3)nc(NC3CCC(CC(=O)c4ccccc4)CC3)c2c1C (stereo not drawn) [Compound 611]
pKi [2]: 6.10 | pIC50 (human adenosine A1 (A1R)): < 5.00

SMILES: Cc1[nH]c2nc(-c3cccnc3)nc(N[C@H]3CC[C@H](O)CC3)c2c1C [Compound 700]
pIC50 (human adenosine A1 (A1R)): < 5.00

SMILES: CNC(=O)NCCCNc1nc(-c2ccccc2)nc2[nH]c(C)c(C)c12 [Compound 1310]
A2a binding, % value printed in Ki column [3]: 76%

SMILES: Cc1[nH]c2nc(-c3ccccc3)nc(NCCNC(=O)C3(N)CC3)c2c1C [Compound 1313]
A1 binding, % value printed in Ki column ([2]; no footnote at cell, footnote 8 of table: % activity @ 10 μM): 30% | A2a binding, % value printed in Ki column [3]: 65%

SMILES: O[C@H]1CC[C@H](Nc2nc(-c3ccncc3)nc3[nH]ccc23)CC1 [Compound 1321]
A3 binding, % activity @ 10 μM [4]: 54%^8

SMILES: NC(=O)[C@@H]1CCCN1c1nc(-c2ccccc2)nc2[nH]ccc12 [Compound 1602]
melting point: 236 to 238 °C

More lines, now with the values ahead:

melting point: 213 to 215 °C
SMILES: COCc1cc2c(N3CCC[C@H]3C(N)=O)nc(-c3ccccc3)nc2[nH]1 [Compound 1605]

melting point: 268 to 271 °C
SMILES: NC(=O)[C@@H]1C[C@H](O)CN1c1nc(-c2ccccc2)nc2[nH]ccc12 [Compound 1606, 4-Hydroxy-1-(2-phenyl-7H-pyrrolo[2,3-d]pyrimidin-4-yl]-pyrrolidine-2-carboxylic acid amide]

melting point: 220 °C (dec.)
SMILES: NC(=O)[C@@H]1CCCN1c1nc(-c2ccccc2)nc2[nH]c(C(=O)O)cc12 [Compound 1619, [4-(2-Carbamoylpyrrolidin-1-yl)-2-phenyl-7H-pyrrolo[2,3-d]pyrimidine-6-carboxylic acid]]

melting point: 225 to 227 °C
SMILES: COC(=O)c1cc2c(NC3CCC(O)CC3)nc(-c3ccccc3)nc2[nH]1 (stereo not drawn) [Compound 1627, 4-(4-Hydroxy-cyclohexylamino)-2-phenyl-7H-pyrrolo[2,3-d]pyrimidine-6-carboxylic acid methyl ester]

melting point: 210 to 220 °C (dec.)
SMILES: NC(=O)c1cc2c(NC3CCC(O)CC3)nc(-c3ccccc3)nc2[nH]1 (stereo not drawn) [Compound 1630, 4-(4-Hydroxy-cyclohexylamino)-2-phenyl-7H-pyrrolo[2,3-d]pyrimidine-6-carboxylic acid amide]
